| SMILES | melting point [°C] |
| --- | --- |
| CNC(=O)c1cccc(-c2c(C)cc(C)cc2C)c1 [1-22, N-methyl-3-(2′,4′,6′-trimethylphenyl)benzamide] | 142.9 |
| CNC(=O)c1cccc(-c2c(Cl)cccc2Cl)c1 [1-30, N-methyl-3-(2′,6′-dichlorophenyl)benzamide] | 174.8 |
| CNC(=O)c1cccc(-c2c(C)cc(OC)cc2C)c1 [1-65, N-methyl-3-(2′,6′-dimethyl-4′-methoxyphenyl)benzamide] | 139.6 |
| CNC(=O)c1cccc(-c2c(Cl)ccc(Cl)c2Cl)c1 [1-72, N-methyl-3-(2′,3′,6′-trichlorophenyl)benzamide] | 135.3 |
| CNC(=O)c1cccc(-c2c(Cl)ccc(Br)c2Cl)c1 [1-82, N-methyl-3-(2′,6′-dichloro-3′-bromophenyl)benzamide] | 158 |
| CNC(=O)c1cccc(-c2c(Cl)ccc(N)c2Cl)c1 [1-108, N-methyl-3-(2′,6′-dichloro-3′-aminophenyl)benzamide] | 64.1 |
| CNC(=O)c1cccc(-c2c(Cl)ccc(C(F)(F)F)c2Cl)c1 [1-120, N-methyl-3-(2′,6′-dichloro-3′-trifluoromethylphenyl)benzamide] | 126.1 |
| CCNC(=O)c1cccc(-c2c(Cl)ccc(C(F)(F)F)c2Cl)c1 [1-127, N-ethyl-3-(2′,6′-dichloro-3′-trifluoromethylphenyl)benzamide] | 137 |
| Nc1cccc(-c2c(Cl)cccc2Cl)c1 [1-268, 3-(2′,6′-dichlorophenyl)aniline] | 102 |

Now from value to compound:

| melting point [°C] | SMILES |
| --- | --- |
| 142.5 | CNC(=O)c1cc(-c2c(Cl)cccc2Cl)ccc1F [2-22, N-methyl-3-(2′,6′-dichlorophenyl)-6-fluorobenzamide] |
| 137.1 | CNC(=O)c1cccc(-c2c(C)cc(Cl)cc2C)c1 [Compound No. 1-23, N-methyl-3-(4′-chloro-2′,6′-dimethylphenyl)benzamide] |
| 200.3 | Cc1cc(Oc2ccc(C(F)(F)F)cn2)cc(C)c1-c1cccc(N)c1 [Compound No. 1-57, 4-(3′-aminophenyl)3,5-dimethylphenyl 5-trifluoromethyl-2-pyridyl ether] |
| 130 | CNC(=O)c1cc(-c2c(C)cc(C)cc2C)ccc1Cl [Compound No. 2-12, N-methyl-6-chloro-3-(2′,4′,6′-trimethylphenyl)benzamide] |

Source: US20070135497A1, “Biphenyl derivative or its salt, and pesticide containing it as an active ingredient” (ISHIHARA SANGYO KAISHA LTD., priority 2003, published 2007)
